Where a name gives a salt, the structure may show the parent alone. The source made the active and inactive calls. For most assays here, no stated cut-off is given here; in the data, actives have a measured Kd and inactives only a lower limit.
Assays:
[1] = target: Calcium/calmodulin-dependent protein kinase type II subunit delta (Homo sapiens, UniProt Q13557)
[2] = target: Cyclin-dependent kinase 12 (Homo sapiens, UniProt Q9NYV4)
[3] = target: Cyclin-dependent kinase 4 (Homo sapiens, UniProt P11802)
[4] = target: Epithelial discoidin domain-containing receptor 1 (Homo sapiens, UniProt Q08345)
Sequence of Epithelial discoidin domain-containing receptor 1 (Q08345 whole entry, the tested form may be a part): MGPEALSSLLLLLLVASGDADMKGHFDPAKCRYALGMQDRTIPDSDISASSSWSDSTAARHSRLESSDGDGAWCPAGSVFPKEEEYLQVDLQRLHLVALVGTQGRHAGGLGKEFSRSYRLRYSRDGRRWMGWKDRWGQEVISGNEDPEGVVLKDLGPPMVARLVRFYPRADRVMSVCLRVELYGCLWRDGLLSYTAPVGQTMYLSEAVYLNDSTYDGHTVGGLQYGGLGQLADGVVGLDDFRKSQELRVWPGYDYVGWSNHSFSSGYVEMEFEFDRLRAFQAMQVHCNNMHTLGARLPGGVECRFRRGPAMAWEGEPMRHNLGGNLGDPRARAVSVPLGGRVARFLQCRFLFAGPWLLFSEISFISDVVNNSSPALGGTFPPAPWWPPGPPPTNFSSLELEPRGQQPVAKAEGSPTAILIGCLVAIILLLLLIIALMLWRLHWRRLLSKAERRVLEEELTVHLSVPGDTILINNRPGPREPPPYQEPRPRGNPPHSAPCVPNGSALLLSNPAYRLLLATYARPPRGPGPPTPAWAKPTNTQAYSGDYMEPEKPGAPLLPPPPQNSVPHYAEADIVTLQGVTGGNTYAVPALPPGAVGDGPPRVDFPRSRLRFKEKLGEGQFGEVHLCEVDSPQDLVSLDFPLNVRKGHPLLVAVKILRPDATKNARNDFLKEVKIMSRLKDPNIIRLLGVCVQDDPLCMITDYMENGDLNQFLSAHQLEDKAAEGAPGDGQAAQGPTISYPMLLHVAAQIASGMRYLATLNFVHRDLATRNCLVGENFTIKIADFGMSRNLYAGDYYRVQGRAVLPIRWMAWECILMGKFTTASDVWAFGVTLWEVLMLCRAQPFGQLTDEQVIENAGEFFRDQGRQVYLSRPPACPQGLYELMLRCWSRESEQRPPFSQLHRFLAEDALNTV

[5] = target: Ephrin type-A receptor 4 (Homo sapiens, UniProt P54764)
[6] = target: T1, Dual specificity mitogen-activated protein kinase kinase 3 (Homo sapiens, UniProt P46734)
T1 sequence (P46734 whole entry): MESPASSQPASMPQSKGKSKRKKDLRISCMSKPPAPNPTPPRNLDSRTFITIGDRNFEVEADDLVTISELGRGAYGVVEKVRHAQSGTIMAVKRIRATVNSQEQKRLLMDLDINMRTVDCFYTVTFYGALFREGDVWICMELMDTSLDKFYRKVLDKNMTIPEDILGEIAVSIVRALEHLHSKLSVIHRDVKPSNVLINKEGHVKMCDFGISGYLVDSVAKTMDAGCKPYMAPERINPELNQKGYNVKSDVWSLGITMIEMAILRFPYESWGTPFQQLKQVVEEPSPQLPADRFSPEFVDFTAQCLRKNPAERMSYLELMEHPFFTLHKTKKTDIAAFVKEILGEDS

[7] = target: Mitogen-activated protein kinase kinase kinase 4 (Homo sapiens, UniProt Q9Y6R4)
Sequence of Mitogen-activated protein kinase kinase kinase 4 (Q9Y6R4 whole entry): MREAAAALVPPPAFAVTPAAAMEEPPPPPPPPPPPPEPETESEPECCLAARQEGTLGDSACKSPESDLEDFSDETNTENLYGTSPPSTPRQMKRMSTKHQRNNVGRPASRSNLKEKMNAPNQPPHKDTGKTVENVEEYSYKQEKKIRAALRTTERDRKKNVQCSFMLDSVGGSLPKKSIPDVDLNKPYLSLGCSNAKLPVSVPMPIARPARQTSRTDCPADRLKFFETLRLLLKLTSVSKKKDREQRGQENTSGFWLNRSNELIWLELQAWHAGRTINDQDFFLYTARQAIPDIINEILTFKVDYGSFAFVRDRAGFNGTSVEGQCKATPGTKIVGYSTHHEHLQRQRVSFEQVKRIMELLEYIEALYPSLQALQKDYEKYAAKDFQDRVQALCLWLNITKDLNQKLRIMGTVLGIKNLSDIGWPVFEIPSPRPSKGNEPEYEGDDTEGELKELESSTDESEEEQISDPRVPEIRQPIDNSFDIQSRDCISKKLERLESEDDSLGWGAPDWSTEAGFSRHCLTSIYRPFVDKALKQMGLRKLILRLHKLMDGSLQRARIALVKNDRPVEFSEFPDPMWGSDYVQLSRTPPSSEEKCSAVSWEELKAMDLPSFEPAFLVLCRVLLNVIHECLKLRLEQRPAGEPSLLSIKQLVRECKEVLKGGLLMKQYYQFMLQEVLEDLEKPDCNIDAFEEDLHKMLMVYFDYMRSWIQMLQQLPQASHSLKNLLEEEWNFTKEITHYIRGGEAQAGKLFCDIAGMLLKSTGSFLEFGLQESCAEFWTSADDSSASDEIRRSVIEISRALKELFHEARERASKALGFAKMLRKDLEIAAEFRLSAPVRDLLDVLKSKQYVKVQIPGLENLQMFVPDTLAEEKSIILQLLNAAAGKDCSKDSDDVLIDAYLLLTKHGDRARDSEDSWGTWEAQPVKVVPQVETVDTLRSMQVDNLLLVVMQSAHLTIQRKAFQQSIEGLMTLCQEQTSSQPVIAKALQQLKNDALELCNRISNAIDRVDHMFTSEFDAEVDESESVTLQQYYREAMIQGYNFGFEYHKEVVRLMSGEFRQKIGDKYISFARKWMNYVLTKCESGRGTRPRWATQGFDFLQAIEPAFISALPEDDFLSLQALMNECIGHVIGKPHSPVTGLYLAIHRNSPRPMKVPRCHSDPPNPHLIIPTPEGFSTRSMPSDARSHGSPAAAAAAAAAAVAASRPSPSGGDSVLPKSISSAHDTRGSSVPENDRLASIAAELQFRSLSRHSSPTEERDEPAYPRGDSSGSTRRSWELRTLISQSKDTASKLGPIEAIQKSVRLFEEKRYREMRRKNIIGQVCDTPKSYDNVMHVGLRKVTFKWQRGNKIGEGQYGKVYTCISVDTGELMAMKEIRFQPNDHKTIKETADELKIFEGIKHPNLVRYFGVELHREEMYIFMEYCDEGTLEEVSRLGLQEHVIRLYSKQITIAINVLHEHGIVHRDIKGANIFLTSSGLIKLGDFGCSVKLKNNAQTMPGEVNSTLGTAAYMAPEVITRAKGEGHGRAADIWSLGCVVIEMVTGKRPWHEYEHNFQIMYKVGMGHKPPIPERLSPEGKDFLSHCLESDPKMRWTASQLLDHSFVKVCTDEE

[8] = target: Mitogen-activated protein kinase 9 (Homo sapiens, UniProt P45984)
[9] = target: Serine/threonine-protein kinase PAK 2 (Homo sapiens, UniProt Q13177)
Sequence of Serine/threonine-protein kinase PAK 2 (Q13177 whole entry): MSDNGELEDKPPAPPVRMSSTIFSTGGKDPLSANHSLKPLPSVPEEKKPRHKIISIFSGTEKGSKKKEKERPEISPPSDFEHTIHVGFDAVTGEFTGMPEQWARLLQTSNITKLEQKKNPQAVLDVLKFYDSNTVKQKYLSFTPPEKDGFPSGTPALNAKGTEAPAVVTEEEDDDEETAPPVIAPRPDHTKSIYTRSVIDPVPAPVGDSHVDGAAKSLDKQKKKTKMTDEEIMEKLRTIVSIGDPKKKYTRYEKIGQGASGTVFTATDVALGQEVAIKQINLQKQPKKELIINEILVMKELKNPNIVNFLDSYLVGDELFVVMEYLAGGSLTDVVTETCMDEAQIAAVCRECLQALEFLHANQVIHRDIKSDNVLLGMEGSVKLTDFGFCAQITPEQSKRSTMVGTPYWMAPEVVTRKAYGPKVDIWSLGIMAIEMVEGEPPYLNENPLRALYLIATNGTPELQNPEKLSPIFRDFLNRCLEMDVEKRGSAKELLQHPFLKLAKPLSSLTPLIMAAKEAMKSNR

[10] = target: cAMP-dependent protein kinase catalytic subunit alpha (Homo sapiens, UniProt P17612)
[11] = target: T2, Glycogen phosphorylase, brain form (Homo sapiens, UniProt P11216)
T2 sequence (P11216 whole entry): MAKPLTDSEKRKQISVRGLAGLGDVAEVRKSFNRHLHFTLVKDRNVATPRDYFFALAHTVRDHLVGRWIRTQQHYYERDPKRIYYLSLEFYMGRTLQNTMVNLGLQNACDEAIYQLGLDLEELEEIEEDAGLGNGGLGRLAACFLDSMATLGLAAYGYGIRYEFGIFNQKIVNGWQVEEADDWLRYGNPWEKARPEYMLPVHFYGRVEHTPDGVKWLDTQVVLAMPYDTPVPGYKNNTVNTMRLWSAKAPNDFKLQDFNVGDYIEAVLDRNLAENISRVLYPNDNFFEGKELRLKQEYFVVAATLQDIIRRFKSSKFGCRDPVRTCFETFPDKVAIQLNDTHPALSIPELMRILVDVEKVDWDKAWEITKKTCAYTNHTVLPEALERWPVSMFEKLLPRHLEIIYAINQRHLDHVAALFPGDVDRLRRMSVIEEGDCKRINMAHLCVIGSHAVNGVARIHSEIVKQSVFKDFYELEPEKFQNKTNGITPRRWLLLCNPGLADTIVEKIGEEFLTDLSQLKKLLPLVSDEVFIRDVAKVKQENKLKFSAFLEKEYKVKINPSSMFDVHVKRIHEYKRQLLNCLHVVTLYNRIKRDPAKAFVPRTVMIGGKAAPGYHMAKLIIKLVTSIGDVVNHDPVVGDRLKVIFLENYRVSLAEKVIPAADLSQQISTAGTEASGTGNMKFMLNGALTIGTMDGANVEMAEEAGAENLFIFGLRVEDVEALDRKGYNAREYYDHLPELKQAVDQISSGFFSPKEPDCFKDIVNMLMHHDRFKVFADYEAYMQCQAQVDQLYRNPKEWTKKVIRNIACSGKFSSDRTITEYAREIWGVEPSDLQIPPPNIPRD

[12] = target: Rho-associated protein kinase 2 (Homo sapiens, UniProt O75116)
[13] = target: T3, Thyroid hormone receptor-associated protein 3 (Homo sapiens, UniProt Q9Y2W1)
T3 sequence (Q9Y2W1 whole entry): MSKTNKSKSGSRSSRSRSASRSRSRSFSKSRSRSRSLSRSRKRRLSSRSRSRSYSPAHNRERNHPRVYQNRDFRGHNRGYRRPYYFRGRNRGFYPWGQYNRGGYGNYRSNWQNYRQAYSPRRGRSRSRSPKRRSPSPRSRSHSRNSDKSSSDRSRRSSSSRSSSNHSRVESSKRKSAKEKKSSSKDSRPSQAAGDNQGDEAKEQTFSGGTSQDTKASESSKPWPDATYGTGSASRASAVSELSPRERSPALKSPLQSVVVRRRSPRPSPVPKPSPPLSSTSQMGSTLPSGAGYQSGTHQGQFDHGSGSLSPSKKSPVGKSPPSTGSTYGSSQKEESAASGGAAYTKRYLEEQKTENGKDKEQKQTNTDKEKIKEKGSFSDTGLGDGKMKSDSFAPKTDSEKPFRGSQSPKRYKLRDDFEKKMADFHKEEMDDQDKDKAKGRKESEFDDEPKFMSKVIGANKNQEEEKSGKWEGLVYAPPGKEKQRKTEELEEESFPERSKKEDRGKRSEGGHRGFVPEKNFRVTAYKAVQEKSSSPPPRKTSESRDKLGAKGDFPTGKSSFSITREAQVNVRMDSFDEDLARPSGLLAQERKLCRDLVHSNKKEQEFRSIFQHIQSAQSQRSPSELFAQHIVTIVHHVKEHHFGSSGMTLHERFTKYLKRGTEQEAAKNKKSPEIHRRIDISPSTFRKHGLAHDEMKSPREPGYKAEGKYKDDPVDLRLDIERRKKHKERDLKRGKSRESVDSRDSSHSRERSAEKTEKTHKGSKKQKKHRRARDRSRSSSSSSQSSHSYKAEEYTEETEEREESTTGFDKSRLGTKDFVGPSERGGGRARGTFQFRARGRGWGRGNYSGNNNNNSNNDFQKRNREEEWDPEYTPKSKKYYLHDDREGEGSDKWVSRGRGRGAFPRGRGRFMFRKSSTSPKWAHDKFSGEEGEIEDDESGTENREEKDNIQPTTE

[14] = target: DNA topoisomerase 2-beta (Homo sapiens, UniProt Q02880)
[15] = target: Mitogen-activated protein kinase kinase kinase 20 (Homo sapiens, UniProt Q9NYL2)

Sequence of Cyclin-dependent kinase 12 (Q9NYV4 whole entry): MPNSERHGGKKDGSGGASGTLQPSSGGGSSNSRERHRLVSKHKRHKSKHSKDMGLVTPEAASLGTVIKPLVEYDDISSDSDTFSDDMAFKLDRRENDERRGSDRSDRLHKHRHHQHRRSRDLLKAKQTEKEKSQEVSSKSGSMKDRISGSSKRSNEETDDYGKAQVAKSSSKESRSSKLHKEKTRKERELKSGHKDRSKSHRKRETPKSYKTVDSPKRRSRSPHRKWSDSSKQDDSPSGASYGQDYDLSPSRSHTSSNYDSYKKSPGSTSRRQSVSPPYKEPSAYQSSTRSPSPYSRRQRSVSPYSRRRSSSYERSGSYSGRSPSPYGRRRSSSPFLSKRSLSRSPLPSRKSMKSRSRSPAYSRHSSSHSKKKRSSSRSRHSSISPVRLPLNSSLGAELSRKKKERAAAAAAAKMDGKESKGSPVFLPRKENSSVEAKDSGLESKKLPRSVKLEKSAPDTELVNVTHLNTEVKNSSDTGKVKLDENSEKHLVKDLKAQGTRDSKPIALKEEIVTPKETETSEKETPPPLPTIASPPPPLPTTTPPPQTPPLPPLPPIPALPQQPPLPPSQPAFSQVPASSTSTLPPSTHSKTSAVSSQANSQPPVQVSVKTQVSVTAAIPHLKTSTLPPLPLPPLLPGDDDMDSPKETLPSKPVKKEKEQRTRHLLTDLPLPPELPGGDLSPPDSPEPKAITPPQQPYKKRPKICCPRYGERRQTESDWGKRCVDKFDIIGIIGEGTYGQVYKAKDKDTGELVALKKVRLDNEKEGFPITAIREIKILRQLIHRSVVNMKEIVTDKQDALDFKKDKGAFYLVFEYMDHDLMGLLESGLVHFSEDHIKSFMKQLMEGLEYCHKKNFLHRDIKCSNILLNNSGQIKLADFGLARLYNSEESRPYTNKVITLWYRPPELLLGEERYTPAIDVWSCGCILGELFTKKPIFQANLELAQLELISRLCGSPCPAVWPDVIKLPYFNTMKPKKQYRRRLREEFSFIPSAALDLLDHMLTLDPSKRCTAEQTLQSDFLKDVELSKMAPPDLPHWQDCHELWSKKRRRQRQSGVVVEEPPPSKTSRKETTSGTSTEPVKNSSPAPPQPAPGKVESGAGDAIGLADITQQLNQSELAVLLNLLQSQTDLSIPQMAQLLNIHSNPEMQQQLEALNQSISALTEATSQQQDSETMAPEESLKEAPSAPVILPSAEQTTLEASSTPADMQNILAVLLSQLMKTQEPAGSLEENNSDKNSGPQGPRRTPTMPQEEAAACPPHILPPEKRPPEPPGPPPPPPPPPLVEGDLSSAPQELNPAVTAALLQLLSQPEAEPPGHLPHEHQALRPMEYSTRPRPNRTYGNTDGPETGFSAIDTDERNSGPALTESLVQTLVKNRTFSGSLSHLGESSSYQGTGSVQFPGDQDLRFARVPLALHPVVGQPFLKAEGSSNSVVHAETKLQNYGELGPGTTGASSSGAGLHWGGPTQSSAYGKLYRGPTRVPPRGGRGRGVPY
Sequence of Calcium/calmodulin-dependent protein kinase type II subunit delta (Q13557 whole entry): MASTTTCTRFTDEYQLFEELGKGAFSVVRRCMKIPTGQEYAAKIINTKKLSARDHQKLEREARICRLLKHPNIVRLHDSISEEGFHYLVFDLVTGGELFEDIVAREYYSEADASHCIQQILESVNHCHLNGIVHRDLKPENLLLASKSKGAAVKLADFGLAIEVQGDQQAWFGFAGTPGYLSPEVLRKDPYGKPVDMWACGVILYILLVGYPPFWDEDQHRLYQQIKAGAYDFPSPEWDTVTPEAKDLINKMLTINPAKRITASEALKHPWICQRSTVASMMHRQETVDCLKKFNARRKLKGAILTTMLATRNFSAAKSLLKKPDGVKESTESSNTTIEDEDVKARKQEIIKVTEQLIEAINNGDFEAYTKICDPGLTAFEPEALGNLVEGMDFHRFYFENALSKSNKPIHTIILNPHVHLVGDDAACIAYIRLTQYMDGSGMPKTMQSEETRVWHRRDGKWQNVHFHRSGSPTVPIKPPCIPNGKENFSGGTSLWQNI

Row | SMILES | Kd [1] | Kd [2] | Kd [3] | Kd [4] | Kd [5] | Kd [6] | Kd [7] | Kd [8] | Kd [9] | Kd [10] | Kd [11] | Kd [12] | Kd [13] | Kd [14] | Kd [15]
1 | COc1cc2ncnc(Oc3cccc(NC(=O)Nc4cc(C(C)(C)C(F)(F)F)on4)c3)c2cc1OC [CEP-32496] | > 30 µM (inactive) | > 30 µM (inactive) | > 30 µM (inactive) | 0.124 µM (active) | > 30 µM (inactive) | > 30 µM (inactive) | > 30 µM (inactive) | 0.148 µM (active) | > 30 µM (inactive) | > 30 µM (inactive) | > 30 µM (inactive) | > 30 µM (inactive) | > 30 µM (inactive) | > 30 µM (inactive) | 0.998 µM (active)
2 | C#Cc1cccc(Nc2ncnc3cc(OC)c(OCCCCCCC(=O)NO)cc23)c1 [CUDC-101] | > 30 µM (inactive) | > 30 µM (inactive) | > 30 µM (inactive) | > 30 µM (inactive) | > 30 µM (inactive) | > 30 µM (inactive) | > 30 µM (inactive) | > 30 µM (inactive) | > 30 µM (inactive) | > 30 µM (inactive) | > 30 µM (inactive) | > 30 µM (inactive) | > 30 µM (inactive) | > 30 µM (inactive) | > 30 µM (inactive)
3 | COc1ccc(S(=O)(=O)N(C(C)=O)c2ccccc2/C=C/c2cc[n+]([O-])cc2)cc1 [HMN-214] | > 30 µM (inactive) | > 30 µM (inactive) | > 30 µM (inactive) | > 30 µM (inactive) | > 30 µM (inactive) | > 30 µM (inactive) | > 30 µM (inactive) | > 30 µM (inactive) | > 30 µM (inactive) | > 30 µM (inactive) | > 30 µM (inactive) | > 30 µM (inactive) | > 30 µM (inactive) | > 30 µM (inactive) | > 30 µM (inactive)
4 | O=C(Nc1cc(C(F)(F)F)cc(C(F)(F)F)c1)c1cc(Cl)ccc1O [IMD-0354] | > 30 µM (inactive) | > 30 µM (inactive) | > 30 µM (inactive) | > 30 µM (inactive) | > 30 µM (inactive) | > 30 µM (inactive) | > 30 µM (inactive) | > 30 µM (inactive) | > 30 µM (inactive) | > 30 µM (inactive) | > 30 µM (inactive) | > 30 µM (inactive) | > 30 µM (inactive) | > 30 µM (inactive) | > 30 µM (inactive)

Next, values leading:

Row | Kd [1] | Kd [2] | Kd [3] | Kd [4] | Kd [5] | Kd [6] | Kd [7] | Kd [8] | Kd [9] | Kd [10] | Kd [11] | Kd [12] | Kd [13] | Kd [14] | Kd [15] | SMILES
5 | > 30 µM (inactive) | > 30 µM (inactive) | > 30 µM (inactive) | > 30 µM (inactive) | > 30 µM (inactive) | > 30 µM (inactive) | > 30 µM (inactive) | > 30 µM (inactive) | > 30 µM (inactive) | > 30 µM (inactive) | > 30 µM (inactive) | > 30 µM (inactive) | > 30 µM (inactive) | > 30 µM (inactive) | > 30 µM (inactive) | Cc1cc(Nc2ncc(Cl)c(Nc3ccccc3S(=O)(=O)C(C)C)n2)c(OC(C)C)cc1C1CCNCC1 [CERITINIB]
6 | > 30 µM (inactive) | > 30 µM (inactive) | > 30 µM (inactive) | > 30 µM (inactive) | > 30 µM (inactive) | > 30 µM (inactive) | > 30 µM (inactive) | > 30 µM (inactive) | > 30 µM (inactive) | > 30 µM (inactive) | > 30 µM (inactive) | > 30 µM (inactive) | > 30 µM (inactive) | > 30 µM (inactive) | > 30 µM (inactive) | COCC(=O)NC/C=C/c1ccc2ncnc(Nc3ccc(Oc4ccc(C)nc4)c(C)c3)c2c1 [CP-724714]
7 | > 30 µM (inactive) | > 30 µM (inactive) | > 30 µM (inactive) | > 30 µM (inactive) | > 30 µM (inactive) | 1.48 µM (active) | > 30 µM (inactive) | 1.43 µM (active) | > 30 µM (inactive) | > 30 µM (inactive) | > 30 µM (inactive) | > 30 µM (inactive) | > 30 µM (inactive) | > 30 µM (inactive) | > 30 µM (inactive) | CCS(=O)(=O)N1CCN(c2ccc(Nc3ncc(C(N)=O)c(NC4CC4)n3)cc2)CC1 [Cerdulatinib Hydrochloride]
